Assay results published in patent US11357752B2, “Carolacton and derivatives thereof for use in the treatment of cell proliferation disorders” (Helmholtz-Zentrum für Infektionsforschung GmbH, priority 2017, dated 2022).
Converted amounts (≈) assume the structure as drawn.

Tests used:
spFoID = molecular target: T1, spFoID (Streptococcus pneumoniae serotype 4, UniProt Q97RI9); assay: Surface plasmon resonance assay; assay type: binding, S. pneumoniae; details: read-out: KD (SPR)
T1 construct: made in house; host or cells: E. coli BL21 (DE3)
Procedure: (§1) All surface plasmon resonance (SPR) experiments described in this study were performed on a Biacore X100 system. Different FoIDs with or without His-tag were coupled on CM5 sensor chips (GE Healthcare) by the amine coupling method using a kit from GE Healthcare Life Sciences (Freiburg, Germany). A pH scouting process was performed before protein immobilization to test the most appropriate buffer and the protein concentration for protein coupling. Finally, 20 μg/mL of ecFoID in 10 mM maleate buffer (pH 6.8), 30 μg/mL of ecFoID Q98H in 10 mM maleate buffer (pH 6.3), 40 μg/mL of ecFoID K54N in 10 mM maleate buffer (pH 5.8), 20 μg/mL of spFoID in 10 mM maleate buffer (pH 6.0) and 15 μg/mL of MTHFD2 (His-tag cleaved) in 10 mM maleate buffer (pH 6.8) were used for coupling. In the protein immobilization procedure, the contact time was calculated based on the pH scouting results to achieve -3000-5000 relative resonance units (RU). The buffer used in the SPR assays was 1×HBS-P buffer (10 mM HEPES pH 7.4, 150 mM NaCl, 0.05% Tween 20). The 1 mM stock solution of carolacton was prepared in 1×HBS-P buffer and diluted to different concentration ranges by two-fold serial dilution. In the SPR assay, the association time was 180 s and the dissociation time was 600 s. Data analysis was performed using the Biacore evaluation software. […]

S. pneumoniae TIGR4Δfhs = assay: Planktonic growth of S. pneumoniae fhs deletion mutant; assay type: cell-based, Streptococcus pneumoniae; details: S. pneumoniae fhs inactivated mutant; 0.25 μg/ml carolacton
Procedure: (§2) FIG. 4. Carolacton effects on S. pneumoniae TIGR4 and foID deletion, complementation and fhs deletion mutants. (A) Growth inhibition of planktonic cultures of S. pneumoniae TIGR4 wild type, ΔfoID deletion mutant and controls in THBY. Carolacton (caro) (0.25 μg/ml) was added at an optical density of 600 nm (OD600) of 0.15. (B) Planktonic growth of the S. pneumoniae TIGR4 wild type and the TIGR4Δfhs mutant in THBY. Cultures were treated with 0.25 μg/ml carolacton (OD600 0.15).
(§3) The Streptococcus mutans and Streptococcus pneumoniae strains used herein are UA159 and TIGR4, respectively. S. pneumoniae TIGR4 was routinely grown on Columbia blood agar plates (BD Biosciences) as described previously (Donner et. al, 2016). Streptococci were grown in Todd-Hewitt-Broth +1% (w/v) yeast extract (THBY, BD Biosciences)) at 37° C. and 5% CO2. The E. coli ToIC strain used in carolacton-resistant mutant development is an antibiotic-sensitive E. coli strain without its outer membrane channel protein ToIC. E. coli DH1OB or DH5α strain was used for gene cloning and E. coli BL21 (DE3) was used for protein expression. The protein expression plasmid pHis-TEV (Liu et al., 2009) was used for cloning and expression of all different foID gene orthologues studied herein.

E. coli ToIC = assay: Minimum inhibition concentration (MIC); assay type: cell-based; details: Escherichia coli, read-out: minimum inhibition concentration (MIC)
Excerpt: First, the minimum inhibition concentration (MIC) of carolacton on E. coli ToIC strain has been determined. We started to develop the resistant mutants on CASO agar plates supplemented with 4× the MIC concentration of carolacton as selection pressure. Different numbers of E. coli ToIC cells from 1×10^7 to 10^9 were spread on caso agar plate with carolacton, respectively. After 7 days, E. coli ToIC colonies, which were resistant to carolacton, started to form on the agar plates. The mutants picked were inoculated in liquid MHB medium supplemented with carolacton.

L-929 mouse fibroblasts = assay: Toxicity assay (MTT, confluent layer); assay type: cell-based; details: L929; after 18 h
Procedure: L-929 mouse fibroblasts from DSMZ cultivated at 37° C. and […] in DME medium (high glucose) supplemented with 10% fetal calf serum. Cell culture reagents came from Life Technologies Inc. (GIBCO BRL). […] of sus-pended cells (100,000/mL) were seeded into wells of 96-well plate. After 4 days when the cells had formed a confluent layer, […] of serial dilutions of the test compound were added to the cells. After 18 hours of incubation metabolic activity of the cells was determined using an MTT assay (Mosman et al., 1983).

hsMTHFD2 = molecular target: T2, hsMTHFD2 (Homo sapiens, UniProt P13995); assay: Surface plasmon resonance assay; assay type: binding; details: read-out: KD (SPR)
T2 construct: His-tag (vector pHis-TEV); made in house; host or cells: E. coli BL21 (DE3)
T2 sequence (P13995 36-350): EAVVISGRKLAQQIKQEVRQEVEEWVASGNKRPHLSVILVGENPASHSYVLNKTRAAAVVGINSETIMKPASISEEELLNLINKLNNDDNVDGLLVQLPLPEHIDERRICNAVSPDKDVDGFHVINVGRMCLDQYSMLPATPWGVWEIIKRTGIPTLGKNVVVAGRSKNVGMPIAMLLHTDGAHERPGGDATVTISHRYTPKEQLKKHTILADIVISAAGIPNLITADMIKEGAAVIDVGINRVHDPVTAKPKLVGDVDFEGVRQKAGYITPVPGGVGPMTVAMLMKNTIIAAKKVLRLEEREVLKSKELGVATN
Procedure: as §1

S. pneumoniae TIGR4ΔfoID = assay: Planktonic growth of S. pneumoniae foID deletion mutant; assay type: cell-based, Streptococcus pneumoniae; details: 0.25 μg/ml carolacton
Procedure: as §2, §3

T1 sequence (Q97RI9 whole entry): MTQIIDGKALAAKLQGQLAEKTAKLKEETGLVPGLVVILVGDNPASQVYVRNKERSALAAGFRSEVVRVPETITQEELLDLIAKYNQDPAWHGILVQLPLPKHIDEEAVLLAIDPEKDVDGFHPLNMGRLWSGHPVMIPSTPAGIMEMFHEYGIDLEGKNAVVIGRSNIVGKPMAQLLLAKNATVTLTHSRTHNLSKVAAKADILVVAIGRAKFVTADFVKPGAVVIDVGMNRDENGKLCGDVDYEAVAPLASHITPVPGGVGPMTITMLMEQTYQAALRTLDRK

Which Kd (spFoID) does the source give for `CO[C@H](CC(=O)O)[C@@H](C)C(=O)[C@H](C)/C=C(\C)[C@H]1OC(=O)[C@H](O)[C@H](O)/C=C/[C@H](C)CCC[C@@H]1C` [Carolacton, carolacton] here?
Its Kd is 27 nM.

What about the “inhibition of planktonic growth” value (S. pneumoniae TIGR4Δfhs) of the same compound?
Its value is “complete inhibition”.

What about the MIC (E. coli ToIC) of the same compound?
The MIC was 0.125 µg/mL (≈ 0.267 µM).

What about the acute toxicity (L-929 mouse fibroblasts) of the same compound?
The acute toxicity was “no acute toxicity”.

What about the Kd (hsMTHFD2) of the same compound?
Its Kd is 19 nM.

And the “sensitivity of planktonic growth to carolacton” value (S. pneumoniae TIGR4ΔfoID)?
The value was “carolacton resistant”.
